{
  "source": "patent US6586443B1",
  "about": "“Method of treating multiple sclerosis” (priority 1986, dated 2003)",
  "key": {"[1]": {"conditions": "recent press reports; cited from earlier work"}, "[2]": {"tested_on": "Mu and Delta opiate receptor sites", "conditions": "generally rated; cited from earlier work"}, "[3]": {"tested_on": "genital herpes (herpes simplex virus (HSV) type No. 2)", "assay": "case report: low dose naltrexone in chronic genital herpes", "assay_type": "in vivo, human", "method": "A person has had genital herpes for 13 years, experiencing a severe painful attack with several lesions for the 4-5 days preceding each menstrual period during most of that time. They were started on low dose naltrexone (1.75 mg per day at bedtime). […] Ten months later the dosage was increased to 2.75 mg/day also taken at bedtime. In the entire period of naltrexone treatment covering a number of months, they have had only two attacks each occurring 2-3 weeks after they ran out of naltrexone and interrupted the treatment temporarily."}, "[4]": {"assay": "case report: low dose naltrexone in multiple sclerosis", "assay_type": "in vivo, human", "conditions": "person", "method": "This gradually cleared over a two month period. […] This gradually cleared. An attack of transverse myelitis at the lower thoracic level occurred four months later, their third attack in eight months. As they were recovering from this attack, they started on naltrexone, 1.75 mg per day at bedtime. […] This attack involved weakness and numbness of the left arm."}},
  "data": [
    {"smiles": "Nc1nc2c(ncn2COCCO)c(=O)[nH]1", "note": "[acyclovir]", "values": [
      {"measurement": "effectiveness in treating CFS compared with placebo", "setting": "[1]", "value": "no more effective than a placebo"}
    ]},
    {"smiles": "O=C1CC[C@@]2(O)[C@H]3Cc4ccc(O)c5c4[C@@]2(CCN3CC2CC2)[C@H]1O5", "note": "[naltrexone]", "values": [
      {"measurement": "Mu blocking action relative to Delta blocking action", "setting": "[2]", "value": "about ten"},
      {"measurement": "number of genital herpes attacks in the entire period of naltrexone treatment", "setting": "[3]; 1.75 then 2.75 mg/day at bedtime, each attack 2-3 weeks after treatment was temporarily interrupted", "value": "two"},
      {"measurement": "effect on genital herpes attacks after start of treatment", "setting": "[3]; person, 1.75 mg per day at bedtime, oral", "value": "attacks immediately stopped"},
      {"measurement": "multiple sclerosis attacks after start of naltrexone", "setting": "[4]; 1.75 mg per day at bedtime, three attacks in eight months before treatment", "value": "only subsequent attack in the intervening period of many months occurred one year later, three weeks after they voluntarily discontinued naltrexone"},
      {"measurement": "multiple sclerosis attacks after resuming naltrexone", "setting": "[4]; low dose naltrexone resumed after voluntary discontinuation", "value": "no attacks since"}
    ]}
  ]
}
